From article PMC12707346, “Discovery and validation of small molecule stabilizers of mutant triose phosphate isomerase (TPI) as potential lead candidates for TPI deficiency” (SLAS discovery : advancing life sciences R & D, 2025)
Where “and” joins values, the source holds several entries; their conditions need not be identical. Equal values may be shown once. Read-outs that look alike come from different tables or passages of the source.

Experiment: Tissue distribution study in mice, 20 mg/kg i.p.
Type: in vivo, C57BL/6 J mice
Details: mouse; for Plasma or Tissue Homogenate Conc (individual animals) / concentration at 0.5 h / concentration at 1 h / concentration at 2 h / concentration at 4 h / concentration at 8 h: 20 mg/kg
Protocol: Male C57BL/6 J (Jackson Laboratories) wild type mice (age: 40–60 days) weighing 25–30 g, were used for the tissue distribution study. Mice were randomly assigned in two groups: blank (n = 1) and treatment. The treatment group received 20 mg/kg compound 424 intraperitoneally (n = 15; 3 animals per time point i.e., 0.5, 1, 2, 4, and 8 h). Molport 002–877–424 was formulated in a vehicle consisting of 20 % DMSO, 50 % PEG300, and 30 % sterile water. At each time point animals were euthanized via isoflurane overdose. Blood was collected in ETDA-coated tubes at each time points and centrifuged at 15,000 x g for 5 min. The separated plasma was stored at −80 °C. Following blood collection, liver, kidney, skeletal muscle and brain were isolated, rinsed in normal saline and approximately 100 mg of tissues were snap-frozen and stored at −80 °C. All plasma and tissue samples were shipped on dry ice to Touchstone Biosciences for further analysis. Sample preparation and analysis was performed at Touchstone Biosciences exactly as described in [20].

For `c1ccc(-c2nnc(-c3ccccn3)nc2NC2CCCCC2)cc1` [MolPort-002-877-424, C1CCC(CC1)Nc2nc(nnc2c3ccccc3)c4ccccn4], the “Plasma or Tissue Homogenate Conc (individual animals)” value (shortened to “Plasma or Tissue Homogenate Conc”) (Brain, 0.5 h, IP 20 mg/kg) was 391 ng/mL and 321 ng/mL, the “Plasma or Tissue Homogenate Conc” value (Brain, 1 h, IP 20 mg/kg) was 323 ng/mL and 318 ng/mL and the “Plasma or Tissue Homogenate Conc” value (Brain, 2 h, IP 20 mg/kg) was 160 ng/mL and 129 ng/mL. The “Plasma or Tissue Homogenate Conc” value (Brain, 4 h, IP 20 mg/kg) was 69.3 ng/mL and 59.0 ng/mL, the “Plasma or Tissue Homogenate Conc” value (Brain, 8 h, IP 20 mg/kg) was 29.7 ng/mL and 17.1 ng/mL and the “Plasma or Tissue Homogenate Conc” value (Kidney, 0.5 h, IP 20 mg/kg) was 2870 ng/mL and 2290 ng/mL. For the same compound, the “Plasma or Tissue Homogenate Conc” value (Kidney, 1 h, IP 20 mg/kg) was 2330 ng/mL and 2470 ng/mL, the “Plasma or Tissue Homogenate Conc” value (Kidney, 2 h, IP 20 mg/kg) was 1240 ng/mL and 925 ng/mL and the “Plasma or Tissue Homogenate Conc” value (Kidney, 4 h, IP 20 mg/kg) was 538 ng/mL and 466 ng/mL. The “Plasma or Tissue Homogenate Conc” value (Kidney, 8 h, IP 20 mg/kg) was 239 ng/mL and 196 ng/mL, the “Plasma or Tissue Homogenate Conc” value (Liver, 0.5 h, IP 20 mg/kg) was 3410 ng/mL and 3100 ng/mL and the “Plasma or Tissue Homogenate Conc” value (Liver, 1 h, IP 20 mg/kg) was 3010 ng/mL and 3640 ng/mL. The “Plasma or Tissue Homogenate Conc” value (Liver, 2 h, IP 20 mg/kg) was 1750 ng/mL and 1580 ng/mL, the “Plasma or Tissue Homogenate Conc” value (Liver, 4 h, IP 20 mg/kg) was 777 ng/mL and 744 ng/mL and the “Plasma or Tissue Homogenate Conc” value (Liver, 8 h, IP 20 mg/kg) was 311 ng/mL and 303 ng/mL. The “Plasma or Tissue Homogenate Conc” value (Muscle, 0.5 h, IP 20 mg/kg) was 648 ng/mL and 456 ng/mL, the “Plasma or Tissue Homogenate Conc” value (Muscle, 1 h, IP 20 mg/kg) was 354 ng/mL and 480 ng/mL and the “Plasma or Tissue Homogenate Conc” value (Muscle, 2 h, IP 20 mg/kg) was 206 ng/mL and 218 ng/mL. For the same compound, the “Plasma or Tissue Homogenate Conc” value (Muscle, 4 h, IP 20 mg/kg) was 92.1 ng/mL and 94.2 ng/mL, the “Plasma or Tissue Homogenate Conc” value (Muscle, 8 h, IP 20 mg/kg) was 39.8 ng/mL and 33.3 ng/mL and the “Plasma or Tissue Homogenate Conc” value (Plasma, 0.5 h, IP 20 mg/kg) was 10300 ng/mL and 8770 ng/mL. The “Plasma or Tissue Homogenate Conc” value (Plasma, 1 h, IP 20 mg/kg) was 8560 ng/mL and 11200 ng/mL, the “Plasma or Tissue Homogenate Conc” value (Plasma, 2 h, IP 20 mg/kg) was 4380 ng/mL and 4500 ng/mL and the “Plasma or Tissue Homogenate Conc” value (Plasma, 4 h, IP 20 mg/kg) was 2660 ng/mL and 1990 ng/mL. For the same compound, the “Plasma or Tissue Homogenate Conc” value (Plasma, 8 h, IP 20 mg/kg) was 1310 ng/mL and 925 ng/mL, the Kp (male, C57BL/6 J, brain, ip, 20 mg/kg i.p., read-out: mean tissue to plasma ratios (brain)) was at most 0.134 and the Kp at 0.5 h (male, C57BL/6J, kidney/plasma, Kidney, 0.5 h, IP 20 mg/kg, read-out: Mean Tissue/ Plasma Conc Ratio) was 0.94. For the same compound, the Kp at 0.5 h (male, C57BL/6J, liver/plasma, Liver, 0.5 h, IP 20 mg/kg, read-out: Mean Tissue/ Plasma Conc Ratio) was 1.38, the Kp at 1 h (male, C57BL/6J, liver/plasma, Liver, 1 h, IP 20 mg/kg, read-out: Mean Tissue/ Plasma Conc Ratio) was 1.33 and the Kp at 2 h (male, C57BL/6J, liver/plasma, Liver, 2 h, IP 20 mg/kg, read-out: Mean Tissue/ Plasma Conc Ratio) was 1.3. It also gave a Kp at 4 h (male, C57BL/6J, liver/plasma, Liver, 4 h, IP 20 mg/kg, read-out: Mean Tissue/ Plasma Conc Ratio) of 1.25, a Kp at 8 h (male, C57BL/6J, liver/plasma, Liver, 8 h, IP 20 mg/kg, read-out: Mean Tissue/ Plasma Conc Ratio) of 1.06 and a concentration at 0.5 h (male, C57BL/6 J, brain homogenate, ip, Brain, 0.5 h, IP 20 mg/kg, read-out: Mean Plasma or Tissue Homogenate Conc) of 350 ng/mL. The concentration at 0.5 h (male, C57BL/6 J, brain homogenate, ip, Brain, 0.5 h, IP 20 mg/kg, read-out: Plasma or Tissue Homogenate Conc (individual animals)) was 339 ng/mL, the concentration at 1 h (male, C57BL/6 J, brain homogenate, ip, Brain, 1 h, IP 20 mg/kg, read-out: Mean Plasma or Tissue Homogenate Conc) was 276 ng/mL and the concentration at 1 h (male, C57BL/6 J, brain homogenate, ip, Brain, 1 h, IP 20 mg/kg, read-out: Plasma or Tissue Homogenate Conc (individual animals)) was 186 ng/mL. It also gave a concentration at 2 h (male, C57BL/6 J, brain homogenate, ip, Brain, 2 h, IP 20 mg/kg, read-out: Mean Plasma or Tissue Homogenate Conc) of 136 ng/mL, a concentration at 2 h (male, C57BL/6 J, brain homogenate, ip, Brain, 2 h, IP 20 mg/kg, read-out: Plasma or Tissue Homogenate Conc (individual animals)) of 118 ng/mL and a concentration at 4 h (male, C57BL/6 J, brain homogenate, ip, Brain, 4 h, IP 20 mg/kg, read-out: Mean Plasma or Tissue Homogenate Conc) of 57.5 ng/mL. For the same compound, the concentration at 4 h (male, C57BL/6 J, brain homogenate, ip, Brain, 4 h, IP 20 mg/kg, read-out: Plasma or Tissue Homogenate Conc (individual animals)) was 44.1 ng/mL, the concentration at 8 h (male, C57BL/6 J, brain homogenate, ip, Brain, 8 h, IP 20 mg/kg, read-out: Mean Plasma or Tissue Homogenate Conc) was 22.3 ng/mL and the concentration at 8 h (male, C57BL/6 J, brain homogenate, ip, Brain, 8 h, IP 20 mg/kg, read-out: Plasma or Tissue Homogenate Conc (individual animals)) was 20.2 ng/mL. It also gave a concentration at 0.5 h (male, C57BL/6 J, brain, ip, Brain, 0.5 h, IP 20 mg/kg, read-out: Mean Tissue) of 1400 ng/g, a concentration at 1 h (male, C57BL/6 J, brain, ip, Brain, 1 h, IP 20 mg/kg, read-out: Mean Tissue) of 1100 ng/g and a concentration at 2 h (male, C57BL/6 J, brain, ip, Brain, 2 h, IP 20 mg/kg, read-out: Mean Tissue) of 543 ng/g. It also gave a concentration at 4 h (male, C57BL/6 J, brain, ip, Brain, 4 h, IP 20 mg/kg, read-out: Mean Tissue) of 230 ng/g, a concentration at 8 h (male, C57BL/6 J, brain, ip, Brain, 8 h, IP 20 mg/kg, read-out: Mean Tissue) of 89.3 ng/g and a concentration at 0.5 h (male, C57BL/6J, kidney homogenate, ip, Kidney, 0.5 h, IP 20 mg/kg, read-out: Mean Plasma or Tissue Homogenate Conc) of 2460 ng/mL. It also gave a concentration at 0.5 h (male, C57BL/6J, kidney homogenate, ip, Kidney, 0.5 h, IP 20 mg/kg, read-out: Plasma or Tissue Homogenate Conc (individual animals)) of 2210 ng/mL, a concentration at 1 h (male, C57BL/6 J, kidney homogenate, ip, Kidney, 1 h, IP 20 mg/kg, read-out: Mean Plasma or Tissue Homogenate Conc) of 2130 ng/mL and a concentration at 1 h (male, C57BL/6 J, kidney homogenate, ip, Kidney, 1 h, IP 20 mg/kg, read-out: Plasma or Tissue Homogenate Conc (individual animals)) of 1580 ng/mL. It also gave a concentration at 2 h (male, C57BL/6 J, kidney homogenate, ip, Kidney, 2 h, IP 20 mg/kg, read-out: Mean Plasma or Tissue Homogenate Conc) of 1020 ng/mL, a concentration at 2 h (male, C57BL/6 J, kidney homogenate, ip, Kidney, 2 h, IP 20 mg/kg, read-out: Plasma or Tissue Homogenate Conc (individual animals)) of 889 ng/mL and a concentration at 4 h (male, C57BL/6 J, kidney homogenate, ip, Kidney, 4 h, IP 20 mg/kg, read-out: Mean Plasma or Tissue Homogenate Conc) of 439 ng/mL. It also gave a concentration at 4 h (male, C57BL/6 J, kidney homogenate, ip, Kidney, 4 h, IP 20 mg/kg, read-out: Plasma or Tissue Homogenate Conc (individual animals)) of 314 ng/mL, a concentration at 8 h (male, C57BL/6 J, kidney homogenate, ip, Kidney, 8 h, IP 20 mg/kg, read-out: Mean Plasma or Tissue Homogenate Conc) of 196 ng/mL and a concentration at 8 h (male, C57BL/6 J, kidney homogenate, ip, Kidney, 8 h, IP 20 mg/kg, read-out: Plasma or Tissue Homogenate Conc (individual animals)) of 153 ng/mL. The concentration at 0.5 h (male, C57BL/6J, kidney, ip, Kidney, 0.5 h, IP 20 mg/kg, read-out: Mean Tissue) was 9830 ng/g, the concentration at 1 h (male, C57BL/6 J, kidney, ip, Kidney, 1 h, IP 20 mg/kg, read-out: Mean Tissue) was 8510 ng/g and the concentration at 2 h (male, C57BL/6 J, kidney, ip, Kidney, 2 h, IP 20 mg/kg, read-out: Mean Tissue) was 4070 ng/g. It also gave a concentration at 4 h (male, C57BL/6 J, kidney, ip, Kidney, 4 h, IP 20 mg/kg, read-out: Mean Tissue) of 1760 ng/g and a concentration at 8 h (male, C57BL/6 J, kidney, ip, Kidney, 8 h, IP 20 mg/kg, read-out: Mean Tissue) of 784 ng/g.
